± gives the uncertainty stated by the source.
Assay: xn = mol fraction of the nth substance listed
[1] = 293.15 K, 101 kPa, x2 = 0, x3 = 0
[2] = 298.15 K, 101 kPa, x2 = 0, x3 = 0
[3] = 303.15 K, 101 kPa, x2 = 0, x3 = 0
[4] = 308.15 K, 101 kPa, x2 = 0, x3 = 0
[5] = 313.15 K, 101 kPa, x2 = 0, x3 = 0
[6] = 298.15 K, 101 kPa, frequency 0.001 MHz, x2 = 0, x3 = 0

SMILES	electrical conductivity [1]	electrical conductivity [2]	electrical conductivity [3]	electrical conductivity [4]	electrical conductivity [5]	other results
O + CCCCCCCCCCCCCCCC[n+]1ccccc1.O=C([O-])C(O)c1ccccc1						electrical conductivity (293.15 K, 101 kPa, x2 = 0): 0.00012 S/m; electrical conductivity (298.15 K, 101 kPa, x2 = 0): 0.00015 S/m; electrical conductivity (303.15 K, 101 kPa, x2 = 0): 0.00016 S/m; electrical conductivity (308.15 K, 101 kPa, x2 = 0): 0.00017 S/m; electrical conductivity (313.15 K, 101 kPa, x2 = 0): 0.00019 S/m
O + CCCCCCCCCCCCCCCC[n+]1ccccc1.O=C([O-])C(O)c1ccccc1 + CC(C)C[C@H](N)C(=O)O	0.00012 S/m	0.00015 S/m	0.00016 S/m	0.00017 S/m	0.00019 S/m	
O + CCCCCCCCCCCCCCCC[n+]1ccccc1.O=C([O-])C(O)c1ccccc1 + CC(C)[C@H](N)C(=O)O	0.00012 S/m	0.00015 S/m	0.00016 S/m	0.00017 S/m	0.00019 S/m	
O + CCCCCCCCCCCCCCCC[n+]1ccccc1.O=C([O-])C(O)c1ccccc1 + C[C@H](N)C(=O)O	0.00012 S/m	0.00015 S/m	0.00016 S/m	0.00017 S/m	0.00019 S/m	
O + CCCCCCCCCCCCCCCC[n+]1ccccc1.O=C([O-])C(O)c1ccccc1 + NCC(=O)NCC(=O)O	0.00012 S/m	0.00015 S/m	0.00016 S/m	0.00017 S/m	0.00019 S/m	
O + CCCCCCCCCCCCCCCC[n+]1ccccc1.O=C([O-])C(O)c1ccccc1 + NCC(=O)O	0.00012 S/m	0.00015 S/m	0.00016 S/m	0.00017 S/m	0.00019 S/m	
O + CCCCCCCCCCCCCCCC[n+]1ccccc1.O=C([O-])c1ccccc1O						electrical conductivity (293.15 K, 101 kPa, x2 = 0): 0.000135 ± 8.1e-06 S/m; electrical conductivity (298.15 K, 101 kPa, x2 = 0): 0.000158 ± 9.5e-06 S/m; electrical conductivity (303.15 K, 101 kPa, x2 = 0): 0.000178 ± 1.1e-05 S/m; electrical conductivity (308.15 K, 101 kPa, x2 = 0): 0.000197 ± 1.2e-05 S/m; electrical conductivity (313.15 K, 101 kPa, x2 = 0): 0.000246 ± 1.5e-05 S/m
O + CCCCCCCCCCCCCCCC[n+]1ccccc1.[Cl-]						electrical conductivity (308.15 K, 101 kPa, x2 = 0): 6.7e-05 ± 1e-06 S/m
C[C@H](N)C(=O)O + CCCCCCCCCCCCCCCC[n+]1ccccc1.[Cl-] + O						electrical conductivity (308.15 K, 101 kPa, x1 = 2.018e-05, x2 = 0): 0.00076 ± 8e-06 S/m; electrical conductivity (308.15 K, 101 kPa, x1 = 2.252e-05, x2 = 0): 5.6e-05 ± 1e-06 S/m; electrical conductivity (308.15 K, 101 kPa, x1 = 0.0009272, x2 = 0): 7.5e-05 ± 1e-06 S/m; electrical conductivity (308.15 K, 101 kPa, x1 = 0.001838, x2 = 0): 0.000251 ± 3e-06 S/m
CCC[N+]1(C)CCCC1.O=S(=O)([N-]S(=O)(=O)C(F)(F)F)C(F)(F)F + CCCCCCCCCCCCCC[P+](CCCCCC)(CCCCCC)CCCCCC.O=S(=O)([N-]S(=O)(=O)C(F)(F)F)C(F)(F)F						electrical conductivity (313.15 K, 101 kPa, x2 = 0.75): 0.0308 ± 0.0031 S/m; viscosity (313.15 K, 101 kPa, x2 = 0.75): 135 ± 15 mPa·s
O + CCCCCCCCCCCCCC[n+]1ccccc1.O=C([O-])C(O)c1ccccc1						electrical conductivity (293.15 K, 101 kPa, x2 = 0): 0.00012 S/m; electrical conductivity (298.15 K, 101 kPa, x2 = 0): 0.00015 S/m; electrical conductivity (303.15 K, 101 kPa, x2 = 0): 0.00016 S/m; electrical conductivity (308.15 K, 101 kPa, x2 = 0): 0.00017 S/m; electrical conductivity (313.15 K, 101 kPa, x2 = 0): 0.00019 S/m
O + CCCCCCCCCCCCCC[n+]1ccccc1.O=C([O-])C(O)c1ccccc1 + CC(C)C[C@H](N)C(=O)O	0.00012 S/m	0.00015 S/m	0.00016 S/m	0.00017 S/m	0.00019 S/m	
O + CCCCCCCCCCCCCC[n+]1ccccc1.O=C([O-])C(O)c1ccccc1 + CC(C)[C@H](N)C(=O)O	0.00012 S/m	0.00015 S/m	0.00016 S/m	0.00017 S/m	0.00019 S/m	
O + CCCCCCCCCCCCCC[n+]1ccccc1.O=C([O-])C(O)c1ccccc1 + C[C@H](N)C(=O)O	0.00012 S/m	0.00015 S/m	0.00016 S/m	0.00017 S/m	0.00019 S/m	
O + CCCCCCCCCCCCCC[n+]1ccccc1.O=C([O-])C(O)c1ccccc1 + NCC(=O)NCC(=O)O	0.00012 S/m	0.00015 S/m	0.00016 S/m	0.00017 S/m	0.00019 S/m	
O + CCCCCCCCCCCCCC[n+]1ccccc1.O=C([O-])C(O)c1ccccc1 + NCC(=O)O	0.00012 S/m	0.00015 S/m	0.00016 S/m	0.00017 S/m	0.00019 S/m	
O + CCCCCCCCCCCCCCn1cc[n+](C)c1.[Br-] + CC[N+](CC)(CC)CC.[Br-]						electrical conductivity [6]: 0.00046 ± 7e-05 S/m; electrical conductivity (308.15 K, 101 kPa, frequency 0.001 MHz, x2 = 0, x3 = 0): 0.00115 ± 7e-05 S/m; electrical conductivity (318.15 K, 101 kPa, frequency 0.001 MHz, x2 = 0, x3 = 0): 0.00157 ± 8e-05 S/m
O + CCCCCCCCCCCCOS(=O)(=O)[O-].[Na+] + CCCCCCCCCCCCCCCC[N+](C)(C)C.[Br-]						electrical conductivity [6]: 0.000321 ± 3.2e-05 S/m
NCC(=O)NCC(=O)O + CCCCCCCCCCCC[N+](C)(C)C.[Br-] + O						electrical conductivity (293.15 K, 100 kPa, x1 = 0.0001801, x2 = 0.0003553): 0.093 ± 0.01 S/m; electrical conductivity (293.15 K, 100 kPa, x1 = 0.0001801, x2 = 0.0003787): 0.095 ± 0.01 S/m; electrical conductivity (293.15 K, 100 kPa, x1 = 0.0001801, x2 = 0.0004256): 0.099 ± 0.011 S/m; electrical conductivity (293.15 K, 100 kPa, x1 = 0.0001802, x2 = 2.706e-05): 0.0098 ± 0.0013 S/m; electrical conductivity (298.15 K, 100 kPa, x1 = 9.009e-05, x2 = 2.704e-05): 0.0082 ± 0.0011 S/m; electrical conductivity (298.15 K, 100 kPa, x1 = 0.0001801, x2 = 0.0003553): 0.096 ± 0.01 S/m; electrical conductivity (298.15 K, 100 kPa, x1 = 0.0001801, x2 = 0.0003787): 0.097 ± 0.01 S/m; electrical conductivity (298.15 K, 100 kPa, x1 = 0.0001801, x2 = 0.0004021): 0.099 ± 0.01 S/m; electrical conductivity (303.15 K, 100 kPa, x1 = 1.802e-05, x2 = 2.703e-05): 0.0078 ± 0.001 S/m; electrical conductivity (303.15 K, 100 kPa, x1 = 9.009e-05, x2 = 2.704e-05): 0.0097 ± 0.0013 S/m; electrical conductivity (308.15 K, 100 kPa, x1 = 1.802e-05, x2 = 2.703e-05): 0.0082 ± 0.0011 S/m; electrical conductivity (308.15 K, 100 kPa, x1 = 9.005e-05, x2 = 0.0004487): 0.098 ± 0.01 S/m; electrical conductivity (313.15 K, 100 kPa, x1 = 1.801e-05, x2 = 0.0005368): 0.093 ± 0.01 S/m; electrical conductivity (313.15 K, 100 kPa, x1 = 1.802e-05, x2 = 2.703e-05): 0.0087 ± 0.0013 S/m; electrical conductivity (313.15 K, 100 kPa, x1 = 9.006e-05, x2 = 0.0004019): 0.098 ± 0.01 S/m; electrical conductivity (313.15 K, 100 kPa, x1 = 0.0001801, x2 = 0.0003318): 0.099 ± 0.01 S/m
